For test [1], the system named is uptake of 14C-5-HT. Put plainly: Inhibition of uptake of 14C-5-HT in vitro (mouse midbrain slices). The class given is cell-based, mice. The note with it: 5 min, read-out: Inhibition (50%) of uptake in vitro 5-HT. On the procedure:
(§1) The method is described by Ross, Renyi and Ogren in European Journal of Pharmacology 17 (1972), 107-112. Tricyclic antidepressant drugs of type imipramine added in vitro or given in vivo to mice decrease the uptake of ^14 C-5-HT and ^3 H-NA in vitro. In the in vitro experiments different concentrations of the test compound were added to the incubation medium. In the in vivo experiments different doses of the test drug were administered intraperitoneally half an hour before the animals were killed. The incubation performance was the same in the two types of experiments, i.e. the midbrain was taken out and sliced and incubated in a mixture consisting of, per 100 mg of brain slices, 0.2 n-mole of ^14 C-5-HT, 0.2 n-mole of ^3 H-NA and 11μ mole of glucose in 2 ml of Krebs-Henseleit buffer, pH 7.4. The incubation time was 5 minutes. The radioactive amines taken up in the slices were dissolved in Soluene-350® (Packard) and the amounts were determined with the double labelling technique by liquid scintillation. The concentration or dose producing 50 percent decrease of the active uptake (ED50) was determined graphically from dose response curves. Active uptake is defined as that part of the radioactive uptake which is inhibited by a high concentration of cocaine. All doses were given at least to four animals.

Test [2] deals with uptake of 3H-NA. The test can be described thus: Inhibition of uptake of 3H-noradrenaline in vitro (mouse midbrain slices). As to conditions: 5 min, compound added to incubation medium, l-noradrenaline 1×10^-7 M, 5 min incubation, ED50 from dose response curves, read-out: Inhibition (50%) of uptake in vitro NA. The class given is cell-based, mice. As to the method: as §1
For test [3], the system named is uptake of 14C-5-HT. Put plainly: Inhibition of uptake of 14C-5-HT in vivo (drug given i.p., uptake measured in midbrain slices). As to conditions: Mus musculus, ip, 0.5 h, mice dosed i.p. half an hour before killing, 5-HT 1×10^-7 M, read-out: Inhibition (50%) of uptake in vivo 5-HT. As to the method:
as §1, with “Tricyclic antidepressant drugs of type imipramine added in vitro or given in vivo to mice decrease the uptake of ^14 C-5-HT and ^3 H-NA in vitro.” left out

For test [4], the system named is uptake of 3H-NA. The test can be described thus: Inhibition of uptake of 3H-noradrenaline in vivo (drug given i.p., uptake measured in midbrain slices). As to conditions: Mus musculus, ip, 0.5 h, mice dosed i.p. half an hour before killing, l-noradrenaline 1×10^-7 M, read-out: Inhibition (50%) of uptake in vivo NA. On the procedure: as §1, with “Tricyclic antidepressant drugs of type imipramine added in vitro or given in vivo to mice decrease the uptake of ^14 C-5-HT and ^3 H-NA in vitro.” left out

The test system of test [5] is 5-HTP behavioural syndrome. Put plainly: 5-HTP response potentiation test. The class given is in vivo, mice. As to conditions: Mus musculus, read-out: Potentiation of 5-HTP effective dose. As to the method: Inhibition of the uptake of 5-HT potentiates the effects of administered 5-hydroxytryptophan (5-HTP) probably by increasing the amount of 5-HT at the receptor. Three mice are given the test drugs one hour (or 4, 24 hours) before dl-5-HTP 90 mg/kg i.v. 5-HTP alone gives only a weak behavioural syndrome but in pretreated mice there is seen a characteristic behavioural syndrome, which comes within five minutes: tremor, lordosis, abduction of the hindlegs, head-twiches. The strength of the syndrome is scored from 0 to +3. Each group consists of 3 animals and at least 4 groups were tested at 25 mg/kg i.p. Control groups receiving imipramine (Tofranil®) are used as reference, since imipramine constantly potentiated dl-5-HTP. The least dose of the test compound producing maximal score (+3) in all animals is estimated from a logarithmic dose-response curve, and is denoted "effective dose" in the following Table.

2 compounds from US4177291A, “Compounds having antidepressive activity” (priority 1976, dated 1979) can be followed below.

Converted amounts (≈) assume the structure as drawn. Where two headings read alike, the source gives them in different places.

In the case of `CC(N)C(=O)CC(C)(C)Cc1ccc(Cl)cc1.Cl` (stereo not shown) [GEA 995, 2-amino-6-(4-chlorophenyl)-5,5-dimethyl-3-hexanone hydrochloride], the IC50 was 0.6 µg/mL with uptake of 14C-5-HT [1] (compound added to incubation medium, mouse midbrain slices, 5-HT 1×10^-7 M, 5 min incubation, ED50 from dose response curves) and over 10 µg/mL in the test with uptake of 3H-NA [2]. Moreover, the ED50 in the test with uptake of 14C-5-HT [3] was 20 mg/kg; in the test with uptake of 3H-NA [4], over 40 mg/kg. In addition, the minimal effective dose in test [5] (mice, least dose producing maximal score (+3) in all animals, test drug given before dl-5-HTP 90 mg/kg i.v.) is 4 mg/kg.

Turning to `CN(C)CCCN1c2ccccc2CCc2ccccc21` [Imipramine, imipramine], the IC50 is 0.1 µg/mL (≈ 0.357 µM) with uptake of 14C-5-HT [1] (Mus musculus) and 0.06 µg/mL (≈ 0.214 µM) in the test on uptake of 3H-NA [2]. For the same compound, the ED50 with uptake of 14C-5-HT [3] is 24 mg/kg; in the test with uptake of 3H-NA [4], 6 mg/kg. In addition, the minimal effective dose in test [5] stood at 15 mg/kg.
